≈ marks a conversion by molar mass, not a printed value.
How the values were obtained:
[1] = tested on: Colon 26 mouse colon cancer cells; assay: In vivo antitumor activity, subcutaneously implanted Colon 26 (Test Example 2); parameters: species or system mouse (female CDF1 mice); settings: Colon 26 s.c. in CDF1 mice, i.v. on day 1, tumors weighed day 15; for 50% T/C: 21600 min
Experimental: A cell suspension of Colon 26 mouse colon cancer cells (1×10^7 cells/ml) in HBSS (Hanks' Balanced Salt Solution) was prepared. This cell suspension (0.1 ml each) was implanted subcutaneously into the lateral region of female CDF1 mice (day 0). One day after the tumor cell injection (day 1), the body weight of the mice was measured, and then solutions of test compounds (5% glucose solutions containing 5% Tween 80) were injected intravenously into the tails of the mice. On day 15, the resulting tumors were taken out and weighed.
Percent average weights of tumors of animals in the test groups, in which the compounds were injected, with respect to those in the control group, in which no compounds were injected, were calculated and given as T/C values.

[2] = Stability of compounds (1), remaining rate by HPLC after 3 days (Test Example 3); format: physicochemical
Experimental: In order to compare stabilities of the compounds, remaining rates of compounds were obtained by incubating the compounds at about 4° C. and 50° C. for 3 days and measuring comparative peak areas on HPLC (Table 4).

[3] = tested on: Mouse B16 melanoma cells; assay: In vitro tumor cell growth suppressing activity (Test Example 1); format: cell-based; settings: 37° C., 3 days
Experimental: Antitumor activity of the above-mentioned compounds was tested as follows. Mouse B16 melanoma cells were plated on a 96-well culture plate, test compounds were added to the cells one day after, and then the plate was incubated at 37° C. for 3 days under a 5%-CO2 atmosphere. According to the method described in Cancer Res. 48, 589-601, 1988, the concentrations of compounds required to inhibit cell growth by 50% were obtained. The activity is expressed by the concentrations (micrograms/milliliter). The result with distamycin is also shown for comparison.

[4] = Stability of compounds (2), remaining rate by HPLC after one month at 60° C. (Test Example 4); format: physicochemical
Experimental: Stability of these compounds was investigated. As an index of stability, remaining rates of compounds were obtained by measuring remaining compounds after heating at 60° C. for one month. The remaining rates were measured by HPLC.

## Cn1cc(NC(=O)CC[S+](C)C)cc1-c1nc2cc(C(=O)Nc3ccc(N(CCCl)CCCl)cc3)ccc2[nH]1 [1*^1]
[1]
  50% T/C: 7.19 mg/kg
[2]; 50° C.
  remaining at 72 h: 100%
[3]
  50% Suppressing Concentration: 0.71 µg/mL
[4]
  remaining at 730 h: 96.7%

## Cn1cc(NC(=O)CC[S+](C)C)cc1-c1nc2cc(C(=O)Nc3ccc(N(CCCl)CCCl)cc3)ccc2[nH]1 [25*^2]
[1]
  50% T/C: 9.35 mg/kg
[3]
  50% Suppressing Concentration: 0.99 µg/mL
[4]; 43800 min
  Remaining rate: 99.4%

## COc1cccc2c1C(=O)c1c(O)c3c(c(O)c1C2=O)C[C@@](O)(C(=O)CO)C[C@@H]3O[C@H]1C[C@H](N)[C@H](O)[C@H](C)O1 [Adriamycin, adriamycin, reference compound]
[1]; Mus musculus, iv, 360 h, read-out: 50% T/C
  ED50: 12.4 mg/kg

## Cn1cc(NC(=O)c2cc(NC(=O)c3cc(NC=O)cn3C)cn2C)cc1C(=O)NCCC(=N)N [Distamycin, distamycin, reference compound]
[3]; Mus musculus, 72 h, read-out: 50% Suppressing Concentration
  IC50: 36 µg/mL (≈ 74.8 µM)

## Cn1cc(NC(=O)CC[S+](C)C)cc1-c1nc2cc(C(=O)Nc3ccc(N(CCCl)CCCl)cc3)ccc2[nH]1 [IODIDE]
[2]; 4° C.
  remaining at 72 h: 99%
[2]; 50° C., 4320 min
  Remaining rate: 83%

From US5808087A, “Sulfonium salts of pyrrolylbenzimidazoles” (priority 1995, dated 1998)
